ChEMBL document CHEMBL6083204, “Synthesis of a celastrol derivative as a cancer stem cell inhibitor through regulation of the STAT3 pathway for treatment of ovarian cancer” (RSC Med Chem, 2024)
pIC50: −log10 of the molar value. Active and inactive are the calls of the source. The calls are words filed in the database; no cut-off is given here.

Key:
[1] = test system: A2780; assay: Antiproliferative activity against human A2780 cells assessed as inhibition of cell growth incubated for 72 hrs by MTT assay; assay type: functional, cell-based; settings: A2780, 72 h
[2] = target: Signal transducer and activator of transcription 3 (Homo sapiens) (UniProt P40763); assay: Inhibition of STAT3 in human SK-OV-3 cells assessed as downregulation of total STAT3 expression incubated for 24 hrs by Western blotting analysis; assay type: cell-based
Sequence of Signal transducer and activator of transcription 3 (Homo sapiens) (P40763 whole entry): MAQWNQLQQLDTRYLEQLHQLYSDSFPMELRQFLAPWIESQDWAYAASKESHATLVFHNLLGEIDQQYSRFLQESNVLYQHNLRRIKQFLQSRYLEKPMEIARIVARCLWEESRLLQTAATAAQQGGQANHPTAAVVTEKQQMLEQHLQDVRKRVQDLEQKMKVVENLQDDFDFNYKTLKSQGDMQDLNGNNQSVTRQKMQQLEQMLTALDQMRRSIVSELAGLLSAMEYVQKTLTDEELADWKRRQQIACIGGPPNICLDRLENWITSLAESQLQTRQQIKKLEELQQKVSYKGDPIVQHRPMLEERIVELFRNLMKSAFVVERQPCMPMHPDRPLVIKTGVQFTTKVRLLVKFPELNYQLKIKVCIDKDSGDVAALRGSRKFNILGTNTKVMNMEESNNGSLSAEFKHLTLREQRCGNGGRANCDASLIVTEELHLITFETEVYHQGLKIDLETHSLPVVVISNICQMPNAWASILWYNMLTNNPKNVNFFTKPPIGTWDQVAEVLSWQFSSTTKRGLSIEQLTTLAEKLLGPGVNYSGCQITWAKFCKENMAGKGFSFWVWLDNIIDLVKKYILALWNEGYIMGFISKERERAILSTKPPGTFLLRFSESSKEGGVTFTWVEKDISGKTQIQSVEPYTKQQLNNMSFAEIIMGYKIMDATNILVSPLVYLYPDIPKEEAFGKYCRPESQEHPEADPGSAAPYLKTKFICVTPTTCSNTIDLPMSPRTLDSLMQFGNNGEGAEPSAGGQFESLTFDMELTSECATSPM

[3] = target: Signal transducer and activator of transcription 3 (Homo sapiens) (UniProt P40763); assay: Inhibition of STAT3 in human SK-OV-3 cells assessed as downregulation of STAT3 phosphorylation at Tyr705 residue in nuclei at 0.2 uM incubated for 24 hrs by Hoechst33342 staining based immunofluorescence assay; assay type: cell-based
[4] = target: Signal transducer and activator of transcription 3 (Homo sapiens) (UniProt P40763); assay: Inhibition of STAT3 in human SK-OV-3 cells assessed as downregulation of cytoplasmic STAT3 phosphorylation at Tyr705 residue at 0.2 uM incubated for 24 hrs by Hoechst33342 staining based immunofluorescence assay; assay type: cell-based
[5] = test system: SK-OV-3; assay: Induction of cell cycle arrest in human SK-OV-3 cells assessed as accumulation of cells at G2/M phase at 0.4 uM incubated for 24 hrs by BrdU staining based flow cytometry (reference value: 6.3 %); assay type: functional
[6] = test system: A2780; assay: Induction of cell cycle arrest in human A2780 cells assessed as accumulation of cells at G2/M phase at 0.4 uM incubated for 24 hrs by BrdU staining based flow cytometry (reference value: 6.2 %); assay type: functional
[7] = test system: Mitochondrial membrane; assay: Induction of mitochondrial membrane potential loss in human SK-OV-3 cells at 0.2 uM incubated for 24 hrs by JC-1 staining based flow cytometry (reference value: 73.6 %)
[8] = test system: Mitochondrial membrane; assay: Induction of mitochondrial membrane potential loss in human SK-OV-3 cells at 0.4 uM incubated for 24 hrs by JC-1 staining based flow cytometry (reference value: 73.6 %)
[9] = test system: SK-OV-3; assay: Induction of apoptosis in human SK-OV-3 cells assessed as increase in caspase-3 activity at 0.8 uM incubated for 24 hrs by flow cytometry (reference value: 4.6 %); assay type: functional
[10] = Toxicity in BALB/c mouse xenografted with human SK-OV-3 cells assessed as behavioral change at 2 to 5 mg/kg,ip administrated for 21 consecutive days; assay type: organism-based; settings: in vivo, dose 2-5 mg/kg
[11] = Toxicity in BALB/c mouse xenografted with human SK-OV-3 cells assessed as pathological change in kidney at 2 to 5 mg/kg,ip administrated for 21 consecutive days by hematoxylin and eosin staining based assay; assay type: organism-based; settings: in vivo, dose 2-5 mg/kg

pIC50 [1]: 6.85 | inhibition [2]: Dose-dependent-effect | inhibition [3]: Active | inhibition [4]: Active; Showed Mild Inhibition Activity | Activity [7]: 49.6% | Activity [8]: 17.2%
Structure (SMILES): CC1=C(O)C(=O)C=C2C1=CC=C1[C@@]2(C)CC[C@@]2(C)[C@@H]3C[C@](C)(C(=O)N4CCNCC4)CC[C@]3(C)CC[C@]12C
Activity [5]: 7.4% | Activity [6]: 10.1% | Activity [9]: 33.8% | Activity [10]: Non-toxic | Activity [11]: Non-toxic
